Each structure is given as a SMILES string.

In general, IC50 refers to the concentration at which inhibition is half-maximal.

The target of this assay is T1, human S1P1 receptors (Homo sapiens, UniProt P21453).
T1 construct: host or cells: HEK293
T1 sequence (P21453 whole entry): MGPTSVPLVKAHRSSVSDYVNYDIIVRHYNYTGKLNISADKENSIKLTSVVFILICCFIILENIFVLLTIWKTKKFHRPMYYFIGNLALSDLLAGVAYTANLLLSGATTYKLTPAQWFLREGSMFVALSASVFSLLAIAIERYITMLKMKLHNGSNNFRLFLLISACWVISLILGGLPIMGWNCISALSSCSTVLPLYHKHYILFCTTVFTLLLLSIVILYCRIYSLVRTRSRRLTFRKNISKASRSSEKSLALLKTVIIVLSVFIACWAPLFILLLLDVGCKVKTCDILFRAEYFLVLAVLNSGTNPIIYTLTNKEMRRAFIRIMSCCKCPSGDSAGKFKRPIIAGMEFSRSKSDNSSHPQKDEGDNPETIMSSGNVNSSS
The assay is described as follows: S1P1R antagonist assay (fluorescent membrane potential dye, cAMP readout). Type of assay: cell-based. Particulars: HEK293 cells expressing human S1P1 receptors and CNG channel; 500 nM NECA; S1P1R agonist 10 nM; 90 minutes; read-out: EC50 or IC50 value. An excerpt:
The S1P1R antagonist assay is a fluorescent membrane potential dye measurement assay, indicative of intracellular cAMP changes due to G protein-coupled receptor activation. HEK293 cells engineered to express human S1P1 receptors and a cyclic nucleotide-gated (CNG) channel are obtained from BD Biosciences, 80300-250. The CNG channels are activated by elevated levels of cAMP, resulting in ion flux and cell membrane depolarization. Membrane depolarization is detected with a membrane potential dye. Stimulation of the cells with 5′-(N-ethylcarboxamido)adenosine (NECA), an A2b receptor agonist (Sigma, E2387), elicits an A2bR-dependent increase in cAMP.
Subsequent exposure of the cells to a S1P1R agonist suppresses the NECA induced increase in cAMP through S1P1R-specific signaling by inhibiting adenylyl cyclase and the formation of cAMP from ATP. The degree to which a test compound overcomes the S1P1R agonist suppression of the NECA induced increase in cAMP is a measure of S1P1R antagonist activity. Antagonist activity is quantified as the IC50 (i.e., the concentration needed to elicited one-half of the maximum response of the test compound) and/or as the EC50 (i.e., the concentration needed to elicited one-half of the NECA induced stimulation).
Day 1: Freshly thawed cells were plated into 384-well plates (Corning, 3683) at a density of 14,000 cells/well in 20 μL, complete media and incubated for 16 hours at 37° C., 5% CO2 and 99% relative humidity. Complete media included Dulbecco's modified Eagle's medium (Invitrogen, 11965-092), 10% Fetal bovine serum (Hyclone, SH30071.03), 250 μg/mL geneticin (Invitrogen, 10131-027), and 1 μg/mL Puromycin (Fluka, 82595).
Day 2: Membrane potential dye (20 μL, BD Biosciences, 341833) was added to each well and the plates were incubated for 2.5 hours at ambient temperature. Test compounds (20 μL) were added to the wells at various concentrations (≦10 μM, 1 to 3 dilutions) in a NECA base solution and incubated for 90 minutes in the presence of the S1P1R agonist {4-((4-phenyl-5-trifluoromethyl-2-thienyl)methoxy)benzyl}-3-azetidinecarboxylic acid (10 nM). The NECA-base solution contained Dulbecco's phosphate-buffered saline (Invitrogen, 14190-136), 2.5% DMSO (Fluka, 41648), 25 μM Ro 20-1724 (Sigma, B8279), and 500 nM NECA).
Assay plates were read with a PerkinElmer EnVision reader (Excitation 350 nm, Emission 590 nm) at time T=0 minutes, before compound addition and at time T=90 minutes. The signal was calculated as the ratio T90/T0. Data was analyzed in ActivityBase XE and graphs showing log of compound concentration (X-axis) vs. % activity (Y-axis) were generated for IC50 determinations. Percent activity was calculated with the following formula: (Signal−Agonist Control Signal)/(NECA Control Signal−Agonist Control Signal)×100.
With `O=C(Nc1ccc(Oc2ccc(F)cc2)cc1)[C@@H]1C[C@@H](Cc2ccccc2Cl)CN1C(=O)Cn1cncn1` [Compound 57, (2S,4R)-1-(2-(1H-1,2,4-triazol-1-yl)acetyl)-4-(2-chlorobenzyl)-N-(4-(4-fluorophenoxy)phenyl)pyrrolidine-2-carboxamide], the IC50 was at most 300 nM.
As to `O=C(CCC(=O)c1cccs1)NC(COCc1ccccc1)C(=O)Nc1ccc(Oc2ccccc2)cc1` (stereo not drawn) [Compound 312, 4-oxo-N-(2-oxo-1-{[(phenylmethyl)oxy]methyl}-2-{[4-(phenyloxy)phenyl]amino}ethyl)-4-(2-thienyl)butanamide], the IC50 is above 1000 nM.
With `Cc1ccc(C[C@@H]2C[C@@H](C(=O)Nc3ccc(Oc4ccc(F)cc4)cc3)N(C(=O)Cn3cncn3)C2)cc1` [Compound 4], the IC50 was at most 300 nM.
Consider `O=C(Cn1cncn1)N[C@@H](COCc1ccccc1)C(=O)Nc1ccc(Sc2ccc(F)cc2)cc1` [Compound 178, (S)-2-(2-(1H-1,2,4-triazol-1-yl)acetamido)-3-(benzyloxy)-N-(4-(4-fluorophenylthio)phenyl)propanamide], for which the IC50 was at most 300 nM.
As to `CN(C)CCC(=O)N[C@@H](COCc1ccccc1)C(=O)Nc1ccc(Oc2ccc(Cl)cc2)cc1` [Compound 209, (S)-3-(benzyloxy)-N-(4-(4-chlorophenoxy)phenyl)-2-(3-(dimethylamino)propanamido)propanamide], the IC50 lay in the range of 300 to 1000 nM.
For the compound `CCOc1ccc(C(=O)NC(COCc2ccccc2)C(=O)Nc2ccc(Oc3ccccc3)cc2)cc1` (stereo not drawn) [Compound 281, 4-(ethyloxy)-N-(2-oxo-1-{[(phenylmethyl)oxy]methyl}-2-{[4-(phenyloxy)phenyl]amino}ethyl)benzamide], the IC50 was above 1000 nM.
With `CC(=O)N1CCN(CC(=O)N[C@@H](COCc2ccccc2)C(=O)Nc2ccc(Oc3ccc(F)cc3)cc2)CC1` [Compound 236, (S)-2-(2-(4-acetylpiperazin-1-yl)acetamido)-3-(benzyloxy)-N-(4-(4-fluorophenoxy)phenyl)propanamide], the 50% inhibitory concentration (IC50) fell in the range of 300 to 1000 nM.
The figure for `O=C(Nc1ccc(Oc2ccc(Cl)cc2)cc1)[C@@H]1C[C@@H](Cc2ccccc2)CN1C(=O)Cn1cncn1` [Compound 79, (2S,4R)-1-(2-(1H-1,2,4-triazol-1-yl)acetyl)-4-benzyl-N-(4-(4-chlorophenoxy)phenyl)pyrrolidine-2-carboxamide] is at most 300 nM.
The result for `O=C(NC(COCc1ccccc1)C(=O)Nc1ccc(Oc2ccccc2)cc1)c1cnc2ccccc2c1` (stereo not drawn) [Compound 350, N-(2-oxo-1-{[(phenylmethyl)oxy]methyl}-2-{[4-(phenyloxy)phenyl]amino}ethyl)quinoline-3-carboxamide] reads above 1000 nM.
Regarding `O=C(Nc1ccc(Oc2ccc(F)cc2)cc1)[C@@H]1C[C@@H](Cc2ccccc2)CN1C(=O)CCCc1ccc2c(c1)OCCO2` [Compound 33, (2S,4R)-4-benzyl-1-(4-(2,3-dihydrobenzo[b][1,4]dioxin-6-yl)butanoyl)-N-(4-(4-fluorophenoxy)phenyl)pyrrolidine-2-carboxamide], the concentration for half-maximal inhibition (IC50) is at most 300 nM.
The result for `Cc1cc(CC(=O)N[C@@H](COCc2ccccc2)C(=O)Nc2ccc(Oc3ccc(F)cc3)cc2)[nH]n1` [Compound 166, (S)-3-(benzyloxy)-N-(4-(4-fluorophenoxy)phenyl)-2-(2-(3-methyl-1H-pyrazol-5-yl)acetamido)propanamide] reads at most 300 nM; that for `O=C(Nc1ccc(Oc2ccc(F)cc2)cc1)[C@@H]1C[C@@H](Cc2ccccc2)CN1C(=O)CN1C(=O)c2ccccc2C1=O` [Compound 97], at most 300 nM.
`O=C(CN1CCCCCC1)N[C@@H](COCc1ccccc1)C(=O)Nc1ccc(Oc2ccc(F)cc2)cc1` [Compound 128, (S)-2-(2-(azepan-1-yl)acetamido)-3-(benzyloxy)-N-(4-(4-fluorophenoxy)phenyl)propanamide]: the IC50 is above 1000 nM.
Consider `O=C(Cc1c[nH]cn1)N[C@@H](COCc1ccccc1)C(=O)Nc1cccc(Oc2ccccc2)c1` [Compound 243, (S)-2-(2-(1H-imidazol-4-yl)acetamido)-3-(benzyloxy)-N-(3-phenoxyphenyl)propanamide], for which the IC50 is at most 300 nM.
Regarding `O=C(Cc1coc(-c2ccccc2)n1)N[C@@H](COCc1ccc(F)cc1)C(=O)Nc1ccc(Oc2ccc(F)cc2)cc1` [Compound 44, (S)-3-(4-fluorobenzyloxy)-N-(4-(4-fluorophenoxy)phenyl)-2-(2-(2-phenyloxazol-4-yl)acetamido)propanamide], the IC50 was above 1000 nM.
Consider `O=C(Nc1ccc(Oc2ccc(F)cc2)cc1)[C@@H]1C[C@@H](Cc2ccccc2F)CN1C(=O)Cn1nccn1` [Compound 107, (2S,4R)-1-(2-(2H-1,2,3-triazol-2-yl)acetyl)-4-(2-fluorobenzyl)-N-(4-(4-fluorophenoxy)phenyl)pyrrolidine-2-carboxamide], for which the IC50 was at most 300 nM.
Consider `CN(CC(=O)NC(COCc1ccccc1)C(=O)Nc1ccc(Oc2ccccc2)cc1)C(=O)c1ccccc1` (stereo not drawn) [Compound 340, N-(2-oxo-1-{[(phenylmethyl)oxy]methyl}-2-{[4-(phenyloxy)phenyl]amino}ethyl)-N-benzoyl-N-methylaminoacetamide], for which the IC50 was in the range of 300 to 1000 nM.
Take `O=C(Cc1cnc[nH]1)N[C@@H](COCc1ccccc1)C(=O)Nc1ccc(Oc2ccccc2)c(Cl)c1` [Compound 147, (S)-2-(2-(1H-imidazol-4-yl)acetamido)-3-(benzyloxy)-N-(3-chloro-4-phenoxyphenyl)propanamide]: the IC50 is at most 300 nM.
As for `O=C(CN1CCN(Cc2c(F)cccc2Cl)CC1)N[C@@H](COCc1ccccc1)C(=O)Nc1ccc(Oc2ccc(F)cc2)cc1` [Compound 239, (S)-3-(benzyloxy)-2-(2-(4-(2-chloro-6-fluorobenzyl)piperazin-1-yl)acetamido)-N-(4-(4-fluorophenoxy)phenyl)propanamide], the 50% inhibitory concentration (IC50) is at most 300 nM.
For `O=C(Cc1cccc(OC(F)(F)F)c1)N[C@@H](COCc1ccccc1)C(=O)Nc1ccc(Oc2ccc(F)cc2)cc1` [Compound 102, (S)-3-(benzyloxy)-N-(4-(4-fluorophenoxy)phenyl)-2-(2-(3-(trifluoromethoxy)phenyl)acetamido)propanamide], the concentration for half-maximal inhibition (IC50) was above 1000 nM.
For `O=C(CN1CCC(Cc2ccccc2)CC1)N[C@@H](COCc1ccccc1)C(=O)Nc1ccc(Oc2ccc(F)cc2)cc1` [Compound 220, (S)-3-(benzyloxy)-2-(2-(4-benzylpiperidin-1-yl)acetamido)-N-(4-(4-fluorophenoxy)phenyl)propanamide], the half-maximal inhibitory concentration (IC50) was 300 to 1000 nM.
`O=C(CCC1CCCC1)NC(COCc1ccccc1)C(=O)Nc1ccc(Oc2ccccc2)cc1` (stereo not drawn) [Compound 278, N-(2-oxo-1-{[(phenylmethyl)oxy]methyl}-2-{[4-(phenyloxy)phenyl]amino}ethyl)-3-cyclopentylpropanamide]: the IC50 is above 1000 nM.
`O=C(CSc1ccccc1)NC(COCc1ccccc1)C(=O)Nc1ccc(Oc2ccccc2)cc1` (stereo not drawn) [Compound 313, N-(2-oxo-1-{[(phenylmethyl)oxy]methyl}-2-{[4-(phenyloxy)phenyl]amino}ethyl)-2-(phenylthio)acetamide]: the 50% inhibitory concentration (IC50) was 300 to 1000 nM.
`CCCCOCC(=O)N1C[C@H](Cc2ccccc2)C[C@H]1C(=O)Nc1ccc(Oc2ccc(F)cc2)cc1` [Compound 38, (2S,4R)-4-benzyl-1-(2-butoxyacetyl)-N-(4-(4-fluorophenoxy)phenyl)pyrrolidine-2-carboxamide]: the IC50 was at most 300 nM.
As to `Cc1ccc(C)c(CC(=O)NC(COCc2ccccc2)C(=O)Nc2ccc(Oc3ccccc3)cc2)c1` (stereo not drawn) [Compound 373, N-(2-oxo-1-{[(phenylmethyl)oxy]methyl}-2-{[4-(phenyloxy)phenyl]amino}ethyl)-2-(2,5-dimethylphenyl)acetamide], the IC50 was above 1000 nM.
The result for `Cc1cc(Br)ccc1C(=O)NC(COCc1ccccc1)C(=O)Nc1ccc(Oc2ccccc2)cc1` (stereo not drawn) [Compound 311, 4-bromo-2-methyl-N-(2-oxo-1-{[(phenylmethyl)oxy]methyl}-2-{[4-(phenyloxy)phenyl]amino}ethyl)benzamide] reads above 1000 nM; that for `O=C(CN1CCC2CCCCC2C1)N[C@@H](COCc1ccccc1)C(=O)Nc1ccc(Oc2ccc(F)cc2)cc1` (stereo partly drawn) [Compound 222, (2S)-3-(benzyloxy)-N-(4-(4-fluorophenoxy)phenyl)-2-(2-(octahydroisoquinolin-2(1H)-yl)acetamido)propanamide], 300 to 1000 nM.
